# Experiments:
# [1] = system: Herpes simplex virus Type II strain 333; assay: Antiviral activity in guinea pigs infected with Herpes simplex virus Type II (lesion inhibition); type: in vivo; details: oral once daily for four days
# Text: Female Hartley guinea pigs weighing 200 to 250 g are anesthetized with methoxyflurane (available under the […] from Pitman-Moore, Inc., Washington Crossing, N.J.), after which the vaginal area is swabbed with a dry cotton swab. The guinea pigs are then infected intravaginally with a cotton swab saturated with Herpes simplex virus Type II strain 333 (1×10^5 plaque forming units/mL). Guinea pigs are assigned to groups of 7 animals; one group for each treatment and one to serve as a control (vehicle treated). The compounds of the invention are formulated in water containing 5% Tween 80 (a polyoxyethylene sorbitan monooleate available from Aldrich Chemical Company, Inc., Milwaukee, Wis.). The, guinea pigs are treated orally once daily for four consecutive days starting 24 hours after infection. Antiviral activity is evaluated by comparing lesion development in compound-treated versus vehicle-treated guinea pigs. […] The maximum lesion score of each guinea pig is used to calculate the percentage lesion inhibition. The percentage lesion inhibition is calculated as follows: […]
# [2] = system: interferon; assay: Interferon induction in guinea pigs (serum interferon titer); type: in vivo; details: guinea pig serum 24 hours after initial oral dose
# Text: Female Hartley guinea pigs weighing 200 to 250 g are anesthetized with methoxyflurane (available under the […] from Pitman-Moore, Inc., Washington Crossing, N.J.), after which the vaginal area is swabbed with a dry cotton swab. The guinea pigs are then infected intravaginally with a cotton swab saturated with Herpes simplex virus Type II strain 333 (1×10^5 plaque forming units/mL). Guinea pigs are assigned to groups of 7 animals; one group for each treatment and one to serve as a control (vehicle treated). The compounds of the invention are formulated in water containing 5% Tween 80 (a polyoxyethylene sorbitan monooleate available from Aldrich Chemical Company, Inc., Milwaukee, Wis.). The, guinea pigs are treated orally once daily for four consecutive days starting 24 hours after infection. Twenty-four hours after the initial dose of test compound has been administered, blood is obtained from 3 guinea pigs from each treatment group by cardiac puncture of methoxyflurane anesthetized animals. Blood is pooled and allowed to clot at room temperature. After low speed centrifugation, serum is collected and stored at -70° C. until analysis. Interferon levels in the guinea pig serum are determined in a standard microtiter assay using transformed guinea pig cells (ATCC CRL 1405). The interferon assay is done in 96 well microtiter plates. Confluent monolayers of transformed guinea pig cells are treated with dilutions of guinea pig serum made with medium 199 (GIBCO, Grand Island, N.Y.). The cell and serum dilutions are incubated at 37° C. overnight. The following day, the medium and serum are removed and about 10 plaque forming units of Mengovirus are added to each well. Controls consist of wells that receive no guinea pig serum (virus positive control) and wells that receive no virus (virus negative control). Cells and virus are incubated for 2 to 3 days at 37° C. before quantifying for viral cytopathic effect. The viral cytopathic effect is quantified by staining with 0.05% crystal violet followed by spectrophotometric absorbance measurements. The titer of interferon in serum is expressed as units/mL and is the reciprocal of the highest dilution that protects cells from virus.
# [3] = system: interferon-α; assay: Interferon-α induction in human cells, PBM; type: cell-based; details: 24 hours
# [4] = system: interferon-α; assay: Interferon-α induction in human cells, diluted whole blood; type: cell-based; details: 24 hours
# [5] = system: interferon; assay: Interferon induction in mice; type: in vivo; details: mouse serum
# How it was run: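 Mouse serum collected at 1, 2 and 4 h (separate groups), pooled, stored at −70° C, then assayed as for human-cell interferon. Values in α/β reference units/mL against a mouse MU-1-IF standard; "<" marks levels below assay sensitivity.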
# [6] = system: MC-26 colon tumor cells; assay: Inhibition of MC-26 tumors in mice, 14 day lung colony count; type: in vivo; details: lung colonies day 14, 4×10^4 MC-26 cells i.v., oral 30 mg/kg on days 3-7 and 10-14; control 385 ± 31
# Procedure: The mice are sacrificed 14 days later. […] Five mice are in each treatment group and comparisons are made to controls. […] The mice in the control groups were dosed orally with saline (10 mL/kg) on days 3, 4, 5, 6, and 7, and with water (10 mL/kg) on days 10, 11, 12, 13, and 14.
# [7] = system: vesicular stomatitis virus (VSV); assay: microbe, parasite or virus in culture; type: cell-based; details: Vesicular stomatitis virus, read-out: VSV Yield Inhibition
# [8] = system: MC-26 colon tumor cells; assay: Inhibition of MC-26 tumors in mice, 21 day lung colony count; details: lung colonies day 21, 1×10^4 MC-26 cells i.v., control 55 ± 11
# Procedure: On day 0 female CDF1 mice are inoculated i.v. with 1×10^4 MC-26 colon tumor cells in a volume of 0.2 mL of saline per mouse. The mice are sacrificed 21 days later. The lungs are removed and fixed with WARF then allowed to stand for 30 minutes. The lobes are separated and the colonies are counted. Ten mice are in each treatment group and in the control group.
# The mice in the control group were dosed orally with water (10 mL/Kg) on days 0, 1, 2, 3 and 4.
SMILES,% Lesion Inhibition ([1]; dose 0.5 mg/kg),Reference Units/mL (interferon in serum) ([2]; 0.5 mg/kg),Interferon-α induction ([3]; dose concentration 0.01 μg/mL),Interferon-α induction ([3]; dose concentration 0.05 μg/mL),Interferon-α induction ([3]; dose concentration 0.10 μg/mL),Interferon-α induction ([3]; dose concentration 0.50 μg/mL),Interferon-α induction ([3]; dose concentration 1.0 μg/mL),Interferon-α induction ([3]; dose concentration 5.0 μg/mL),Interferon-α induction ([4]; dose concentration 0.10 μg/mL),Interferon-α induction ([4]; dose concentration 0.50 μg/mL),Interferon-α induction ([4]; dose concentration 1.0 μg/mL),"Interferon induction in mice ([5]; oral 1 mg/kg, 1 hr)","Interferon induction in mice ([5]; oral 1 mg/kg, 2 hr)","Interferon induction in mice ([5]; oral 1 mg/kg, 4 hr)","Interferon induction in mice ([5]; oral 3 mg/kg, 1 hr)","Interferon induction in mice ([5]; oral 3 mg/kg, 2 hr)","Interferon induction in mice ([5]; oral 3 mg/kg, 4 hr)","Interferon induction in mice ([5]; oral 10 mg/kg, 1 hr)","Interferon induction in mice ([5]; oral 10 mg/kg, 2 hr)","Interferon induction in mice ([5]; oral 10 mg/kg, 4 hr)",also measured
"CC(C)Cn1c(CN=[N+]=[N-])nc2c(N)nc3ccccc3c21 [Example 11, 2-Azidomethyl-1-(2-methylpropyl)-1H-imidazo-[4,5-c]quinolin-4-amine]",100%,">12,800 Units/mL",330 α Reference Units/mL,330 α Reference Units/mL,570 α Reference Units/mL,570 α Reference Units/mL,570 α Reference Units/mL,570 α Reference Units/mL,330 α Reference Units/mL,330 α Reference Units/mL,250 α Reference Units/mL,280 Reference Units/mL,1100 Reference Units/mL,71 Reference Units/mL,490 Reference Units/mL,1900 Reference Units/mL,30 Reference Units/mL,1100 Reference Units/mL,2500 Reference Units/mL,280 Reference Units/mL,"% Lesion Inhibition ([1]; dose 0.1 mg/kg): 50%; % Lesion Inhibition ([1]; dose 1 mg/kg): 100%; Reference Units/mL (interferon in serum) ([2]; 1 mg/kg): >12,800 Units/mL; Interferon-α induction ([4]; dose concentration 5.0 μg/mL): 140 α Reference Units/mL; Interferon induction in mice ([5]; oral 30 mg/kg, 1 hr): 850 Reference Units/mL; Interferon induction in mice ([5]; oral 30 mg/kg, 2 hr): 2500 Reference Units/mL; Interferon induction in mice ([5]; oral 30 mg/kg, 4 hr): 40 Reference Units/mL; Number of Colonies [6]: 204 ± 28"
"CC(C)Cn1c(CN2CCOCC2)nc2c(N)nc3ccccc3c21 [Example 12, 1-(2-Methylproyl)-2-morpholinomethyl-1H-imidazo-[4,5-c]quinolin-4-amine]",82%,">12,800 Units/mL",,,,,,,<1.8 α Reference Units/mL,37 α Reference Units/mL,140 α Reference Units/mL,94 Reference Units/mL,160 Reference Units/mL,<18 Reference Units/mL,54 Reference Units/mL,40 Reference Units/mL,<18 Reference Units/mL,850 Reference Units/mL,850 Reference Units/mL,40 Reference Units/mL,"% Lesion Inhibition ([1]; dose 2 mg/kg): 100%; Reference Units/mL (interferon in serum) ([2]; 2 mg/kg): >12,800 Units/mL; Interferon-α induction ([4]; dose concentration 5.0 μg/mL): 330 α Reference Units/mL; Interferon induction in mice ([5]; oral 30 mg/kg, 1 hr): 850 Reference Units/mL; Interferon induction in mice ([5]; oral 30 mg/kg, 2 hr): 5800 Reference Units/mL; Interferon induction in mice ([5]; oral 30 mg/kg, 4 hr): 40 Reference Units/mL; Number of Colonies [6]: 149 ± 21"
"CC(C)Cn1c(C(O)c2ccccc2)nc2c(N)nc3ccccc3c21 (stereo not drawn) [Example 48, 4-Amino-1-(2-methylpropyl)-α-phenyl-1H-imidazo[4,5-c]quinoline-2-methanol]",,,,,3100 α Reference Units/mL,840 α Reference Units/mL,330 α Reference Units/mL,1300 α Reference Units/mL,,,,790 Reference Units/mL,940 Reference Units/mL,<260 Reference Units/mL,1600 Reference Units/mL,1600 Reference Units/mL,˜510 Reference Units/mL,2000 Reference Units/mL,2000 Reference Units/mL,˜540 Reference Units/mL,"Interferon induction in mice ([5]; oral 0.3 mg/kg, 1 hr): <260 Reference Units/mL; Interferon induction in mice ([5]; oral 0.3 mg/kg, 2 hr): <260 Reference Units/mL; Interferon induction in mice ([5]; oral 0.3 mg/kg, 4 hr): <260 Reference Units/mL; melting point: 125 to 140 °C"
"CCOCc1nc2c(N)nc3ccccc3c2n1CC(C)(C)O [Example 99, 4-Amino-α,α-dimethyl-2-ethoxymethyl-1H-imidazo[4,5-c]quinoline-1-ethanol]",,,28 α Reference Units/mL,316 α Reference Units/mL,280 α Reference Units/mL,790 α Reference Units/mL,790 α Reference Units/mL,630 α Reference Units/mL,,,,2200 Reference Units/mL,5100 Reference Units/mL,460 Reference Units/mL,1600 Reference Units/mL,750 Reference Units/mL,˜220 Reference Units/mL,2500 Reference Units/mL,4600 Reference Units/mL,˜220 Reference Units/mL,"Interferon induction in mice ([5]; oral 0.3 mg/kg, 1 hr): 1600 Reference Units/mL; Interferon induction in mice ([5]; oral 0.3 mg/kg, 2 hr): 3500 Reference Units/mL; Interferon induction in mice ([5]; oral 0.3 mg/kg, 4 hr): 390 Reference Units/mL; log reduction at 0.1 µg/mL [7]: 5; log reduction at 0.5 µg/mL [7]: 5; log reduction at 1 µg/mL [7]: 5; Number of Colonies ([8]; oral 1 mg/Kg on days 0-4): 29 ± 4; Number of Colonies ([8]; oral 3 mg/Kg on days 0-4): 17 ± 3"
